Measured values taken from patent publication US20230117470A1, “SUBSTITUTED PYRAZOLE COMPOUNDS AS TOLL RECEPTOR INHIBITORS” (BRISTOL-MYERS SQUIBB COMPANY, priority 2019, published 2023).

Key:
Format in all cases: cell-based
human TLR9 = target: T1, human TLR9 (Homo sapiens, UniProt Q9NR96); experiment: TLR9 inhibition reporter assay (HEK-Blue cells, SEAP reporter, ODN2006 stimulation); settings: HEK-Blue cells overexpressing human TLR9, SEAP reporter, ODN2006 5 nM
T1 construct: host or cells: HEK-Blue cells
T1 sequence (Q9NR96 26-1032): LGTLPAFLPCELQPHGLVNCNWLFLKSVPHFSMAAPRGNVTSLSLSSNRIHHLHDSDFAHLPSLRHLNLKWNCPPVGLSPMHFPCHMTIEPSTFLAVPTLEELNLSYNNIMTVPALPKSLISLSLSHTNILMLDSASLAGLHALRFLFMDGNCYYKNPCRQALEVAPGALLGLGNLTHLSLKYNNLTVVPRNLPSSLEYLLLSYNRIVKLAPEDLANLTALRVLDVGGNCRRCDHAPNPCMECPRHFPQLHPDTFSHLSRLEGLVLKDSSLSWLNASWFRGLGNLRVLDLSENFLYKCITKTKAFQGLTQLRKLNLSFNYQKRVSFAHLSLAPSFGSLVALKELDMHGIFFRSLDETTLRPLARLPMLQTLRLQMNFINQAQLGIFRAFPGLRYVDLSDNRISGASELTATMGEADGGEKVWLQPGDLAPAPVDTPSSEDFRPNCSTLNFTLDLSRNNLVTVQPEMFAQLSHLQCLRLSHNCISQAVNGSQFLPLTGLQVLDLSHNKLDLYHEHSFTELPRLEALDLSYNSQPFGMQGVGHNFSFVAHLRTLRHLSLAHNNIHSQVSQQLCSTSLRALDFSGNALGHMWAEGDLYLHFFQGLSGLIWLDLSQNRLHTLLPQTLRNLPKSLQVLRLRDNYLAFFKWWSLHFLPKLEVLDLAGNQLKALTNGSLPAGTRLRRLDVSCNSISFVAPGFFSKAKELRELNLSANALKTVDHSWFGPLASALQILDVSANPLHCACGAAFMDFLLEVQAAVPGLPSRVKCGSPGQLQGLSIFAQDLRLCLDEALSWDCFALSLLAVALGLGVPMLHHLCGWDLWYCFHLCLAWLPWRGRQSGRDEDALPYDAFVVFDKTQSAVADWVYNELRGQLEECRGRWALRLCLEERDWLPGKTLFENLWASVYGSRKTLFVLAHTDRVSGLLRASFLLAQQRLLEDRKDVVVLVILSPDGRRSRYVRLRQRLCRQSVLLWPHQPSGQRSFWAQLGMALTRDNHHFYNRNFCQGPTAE
Procedure, shortened: (§1)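 Cells were pre-treated 30 min at room temperature with compound (final 0.05 nM–50 μM), then stimulated with gardiquimod 7.5 μM (TLR7), R848 15.9 μM (TLR8) or ODN2006 5 nM (TLR9). SEAP was read after 22 h at 37° C; percent inhibition scaled between agonist+DMSO and known-inhibitor wells.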

human TLR7 = target: T2, human TLR7 (Homo sapiens, UniProt Q9NYK1); experiment: TLR7 inhibition reporter assay (HEK-Blue cells, SEAP reporter, gardiquimod stimulation); settings: HEK-Blue cells overexpressing human TLR7, SEAP reporter, gardiquimod 7.5 μM
T2 construct: host or cells: HEK-Blue cells
T2 sequence (Q9NYK1 27-1049): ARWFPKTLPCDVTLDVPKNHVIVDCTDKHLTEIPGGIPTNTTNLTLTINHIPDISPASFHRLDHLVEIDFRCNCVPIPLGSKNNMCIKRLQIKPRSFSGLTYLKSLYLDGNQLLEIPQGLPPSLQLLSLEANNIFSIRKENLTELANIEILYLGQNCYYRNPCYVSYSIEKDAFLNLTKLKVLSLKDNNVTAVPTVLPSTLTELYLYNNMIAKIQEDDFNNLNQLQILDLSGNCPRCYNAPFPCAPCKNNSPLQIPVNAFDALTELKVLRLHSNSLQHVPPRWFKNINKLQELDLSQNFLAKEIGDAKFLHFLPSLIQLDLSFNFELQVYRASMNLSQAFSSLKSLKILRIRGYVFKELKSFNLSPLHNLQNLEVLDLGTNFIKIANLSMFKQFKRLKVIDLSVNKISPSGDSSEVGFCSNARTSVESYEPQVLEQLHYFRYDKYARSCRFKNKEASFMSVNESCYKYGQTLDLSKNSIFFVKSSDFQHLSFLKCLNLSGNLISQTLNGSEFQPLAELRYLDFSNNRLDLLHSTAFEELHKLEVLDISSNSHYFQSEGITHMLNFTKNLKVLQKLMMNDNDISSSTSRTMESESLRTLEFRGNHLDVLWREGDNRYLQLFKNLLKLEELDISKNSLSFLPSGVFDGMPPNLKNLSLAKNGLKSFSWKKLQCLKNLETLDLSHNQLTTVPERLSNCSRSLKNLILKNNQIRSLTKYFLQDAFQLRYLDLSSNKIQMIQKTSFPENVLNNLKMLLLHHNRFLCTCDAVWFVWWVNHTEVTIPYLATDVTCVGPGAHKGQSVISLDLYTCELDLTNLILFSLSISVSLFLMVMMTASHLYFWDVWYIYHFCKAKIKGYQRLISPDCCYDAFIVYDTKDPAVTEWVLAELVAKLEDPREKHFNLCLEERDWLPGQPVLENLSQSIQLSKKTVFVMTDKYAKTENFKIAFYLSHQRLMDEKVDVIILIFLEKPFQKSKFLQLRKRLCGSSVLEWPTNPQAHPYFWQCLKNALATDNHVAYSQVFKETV
Procedure, shortened: as §1

human TLR8 = target: T3, human TLR8 (Homo sapiens, UniProt Q9NR97); experiment: TLR8 inhibition reporter assay (HEK-Blue cells, SEAP reporter, R848 stimulation); settings: HEK-Blue cells overexpressing human TLR8, SEAP reporter, R848 15.9 μM
T3 construct: host or cells: HEK-Blue cells
T3 sequence (Q9NR97 27-1041): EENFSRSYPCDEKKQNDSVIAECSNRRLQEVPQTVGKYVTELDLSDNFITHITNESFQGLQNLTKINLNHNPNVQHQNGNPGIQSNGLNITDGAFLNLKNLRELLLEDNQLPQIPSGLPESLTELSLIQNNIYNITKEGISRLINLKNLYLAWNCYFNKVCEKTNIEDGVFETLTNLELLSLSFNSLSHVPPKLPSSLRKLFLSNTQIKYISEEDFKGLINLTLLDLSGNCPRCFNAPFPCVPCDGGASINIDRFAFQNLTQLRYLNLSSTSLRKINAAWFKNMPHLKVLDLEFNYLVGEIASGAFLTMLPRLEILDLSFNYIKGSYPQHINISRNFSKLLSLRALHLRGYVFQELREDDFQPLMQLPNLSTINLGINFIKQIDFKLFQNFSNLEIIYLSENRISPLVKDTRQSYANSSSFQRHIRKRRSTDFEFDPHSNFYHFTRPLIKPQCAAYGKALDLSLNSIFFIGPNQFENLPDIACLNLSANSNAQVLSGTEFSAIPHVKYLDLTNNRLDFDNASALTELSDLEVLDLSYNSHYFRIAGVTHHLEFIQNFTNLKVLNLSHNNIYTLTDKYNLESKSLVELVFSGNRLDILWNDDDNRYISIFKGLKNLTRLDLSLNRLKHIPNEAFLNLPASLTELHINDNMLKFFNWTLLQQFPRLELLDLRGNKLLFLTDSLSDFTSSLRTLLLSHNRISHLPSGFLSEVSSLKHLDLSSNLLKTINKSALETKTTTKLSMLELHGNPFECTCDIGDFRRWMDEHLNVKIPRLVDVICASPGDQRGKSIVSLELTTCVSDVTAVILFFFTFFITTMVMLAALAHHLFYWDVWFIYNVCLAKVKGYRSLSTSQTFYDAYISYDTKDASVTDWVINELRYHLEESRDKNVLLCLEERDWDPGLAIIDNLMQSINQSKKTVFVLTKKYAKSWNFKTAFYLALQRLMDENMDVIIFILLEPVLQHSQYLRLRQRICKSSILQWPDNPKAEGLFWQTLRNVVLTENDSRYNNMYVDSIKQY
Procedure, shortened: as §1

IC50 (human TLR9) [µM]	IC50 (human TLR7) [µM]	IC50 (human TLR8) [µM]	SMILES
> 50	1.12	> 3.13	Cc1cc(-c2[nH]nc(-c3ccc(C4CCN(C)CC4)nc3)c2C(C)C)cn2ncnc12 [Example 359]
26.4	0.00799	0.00093	Cc1cc(-c2[nH]nc(C3CCC(N(C)C(=O)C4CN(C(C)C)C4)CC3)c2C(C)C)cn2ncnc12 (single isomer, unassigned) [Example 303]
> 50	0.0298	0.00533	CCN(C)C1CCC(c2n[nH]c(-c3cc(C)c4ncnn4c3)c2C(C)C)CC1 (single isomer, unassigned) [Example 282]
> 50	0.137	0.122	Cc1cc(-c2[nH]nc(-c3ccc4c(c3)CCN(CC(N)=O)C4)c2C(C)C)cn2ncnc12 [Example 272]
6.26	> 3.13	> 3.13	CCN1CCC(c2ccc(-c3n[nH]c(-c4cc(C)c5ncnn5c4)c3C(C)C)nc2)CC1 [Example 366]
> 50	0.0721	0.0294	Cc1cc(-c2[nH]nc(-c3ncc(C4CCN(CC(C)(C)C)CC4)cn3)c2C(C)C)cn2ncnc12 [Example 371]
> 50	0.039	0.0127	Cc1cc(-c2[nH]nc(-c3ccc(C4CCNCC4)nn3)c2C(C)C)cn2ncnc12 [Example 344]
10.1	0.0107	0.00324	Cc1cc(-c2[nH]nc(C3CCC(N(C)C(=O)C4CN(C)C4)CC3)c2C(C)C)cn2ncnc12 (stereo not drawn) [Example 300, N-(4-(4-isopropyl-5-(8-methyl-[1,2,4]triazolo[1,5-a]pyridin-6-yl)-1H-pyrazol-3-yl)cyclohexyl)-N,1-dimethylazetidine-3-carboxamide]
16.5	0.00786	0.009	Cc1cc(-c2[nH]nc(-c3ncc(C4CCNCC4)cn3)c2C(C)C)cn2ncnc12 [Example 341]
> 50	0.0096	0.00512	Cc1cc(-c2[nH]nc(C3CCC(NCCN(C)C)CC3)c2C(C)C)cn2ncnc12 (single isomer, unassigned) [Example 284]
> 50	0.0351	0.297	COc1cc(-c2[nH]nc(-c3ccc(C4CCN(C(=O)CN(C)C)CC4)cn3)c2C(C)C)cn2ncnc12 [Example 402, 2-(dimethylamino)-1-(4-(6-(4-isopropyl-5-(8-methoxy-[1,2,4]triazolo[1,5-a]pyridin-6-yl)-1H-pyrazol-3-yl)pyridin-3-yl)piperidin-1-yl)ethan-1-one]

More lines, now with the values behind:

SMILES	IC50 (human TLR9) [µM]	IC50 (human TLR7) [µM]	IC50 (human TLR8) [µM]
Cc1cc(-c2[nH]nc(-c3ncc4c(n3)CCN(C)C4)c2C(C)C)cn2ncnc12 [Example 248]	14	0.00833	0.012
Cc1cc(-c2[nH]nc(C(=O)N[C@@H]3CCCN(C(C)C)C3)c2C(C)C)cn2ncnc12 [Example 161]	17	0.0181	0.0147
CCCN1CCC(NC(=O)c2n[nH]c(-c3cc(OC)c4ncnn4c3)c2CC(F)(F)F)CC1 [Example 195, 5-(8-methoxy-[1,2,4]triazolo[1,5-a]pyridin-6-yl)-N-(1-propylpiperidin-4-yl)-4-(2,2,2-trifluoroethyl)-1H-pyrazole-3-carboxamide]	5.5	0.00224	0.00166
COCCN1CCc2nc(-c3n[nH]c(-c4cc(C)c5ncnn5c4)c3C(C)C)sc2C1 [Example 266]	> 50	0.119	0.0602
Cc1cc(-c2[nH]nc(-c3ccc4cnccc4c3)c2C(C)C)cn2ncnc12 [Example 214]	10.3	0.00137	0.00039
Cc1cc(-c2[nH]nc(-c3ncc4c(n3)CCNC4)c2C(C)C)cn2ncnc12 [Example 222]	30.4	0.00075	0.00194
Cc1cc(-c2[nH]nc(C(=O)N3CCNCC3)c2C(C)C)cn2ncnc12 [Example 57]	23.1	0.00424	0.00134
Cc1c(C(=O)NC2CCN(C(C)C)CC2)n[nH]c1-c1cc(C)c2ncnn2c1 [Example 179, N-(1-isopropylpiperidin-4-yl)-4-methyl-5-(8-methyl-[1,2,4]triazolo[1,5-a]pyridin-6-yl)-1H-pyrazole-3-carboxamide]	7.26	0.00972	0.0135
Cc1cc(-c2[nH]nc(C(=O)N(C)C)c2C(C)C)cn2ncnc12 [Example 31]	> 50	0.00398	0.00302
Cc1cc(-c2[nH]nc(C(=O)N[C@H]3CC[C@H](NCC4CCOCC4)CC3)c2C(C)C)cn2ncnc12 [Example 111]	3.93	0.00297	0.0337
COc1ccc(-c2[nH]nc(C(=O)NC3CCN(C(C)C)CC3)c2C(C)C)cc1OC [Example 34]	> 50	0.00444	0.00494
